Data taken from patent US8834843B2, “Imaging method” (GE Healthcare Limited, priority 2007, dated 2014).
Numbered stars: 1 amine (or outer) side, 2 acyl side, 3 side chain; on linkers, the order of the positions; unused ones are H or OH. Bridge positions count the residues as written; N and C are the ends. Side chains are listed from the residue outwards. Peptide text beside a SMILES is read from it. * marks the point of attachment. X1 = C/C(=N\O)C(C)(C)NCCC(CCNC(C)(C)/C(C)=N/O)CCN*; Glutaryl = O=C(CCCC(=O)[*:2])[*:1]; X2 = NC(=O)COCC(=O)NCCOCCOCCOCCN*

Assays:
[1] = tested on: Integrins on Stellate Cell Membranes; assay: Binding to integrins on stellate cell membranes (125I-echistatin competition); set-up: species or system rat; conditions: cold compound vs 125I-echistatin, 37° C. for 60 min; read-out: Ki in the activated stellate cell membrane assay
Protocol: An activated rat liver stellate cell line (immortalized) was a kind gift from Professor Trond Berg at University of Oslo. The cells were grown in 150 mm culture flasks to confluence in Dulbeccos modified Eagels medium containing 10% FBS, glutamine and Penicillin/Streptomycin.
The cells were washed twice in ice cold PBS, pH 7.4, added 10 ml PBS and scraped off with a rubber policeman and transferred to a 50 ml vial on ice. Another 10 ml PBS were added to the flasks, scraped and combined with the first cells. The cells were centrifuged at 2000 rpm at 4° C. for 10 min. The supernatant was poured off and the pellet resuspended in 3 ml PBS. All pellets were combined into one tube, centrifuged as above and the final pellet frozen at −70° C. immediately.
The cell pellets were resuspended in ice-cold homogenization buffer (10 times the amount of cells, for example 2 g pellet to 20 ml homogenization buffer) containing 50 mM Tris-HCl, 5 mM MgCl2, 1 mM EGTA, pH7.4 and in addition protease inhibitors 10 ug/ml leupeptin, 10 ug/ml pepstatin, 200 ug/ml Bacitracin, 0.5 ug/ml aprotinin and 100 uM PMSF. […]
An experiment was set up in a 96-well plate. […] This filterspot was cut off and added a tube that finally was counted in a gamma-counter. […]

[2] = tested on: fibrogenic livers in rat BDL model; assay: Liver uptake (SUV) in BDL vs sham rats at 2-28 days post-operatively; type: in vivo; conditions: 1 hour after tail vein injection
Protocol: Outbred male Sprague Dawley rats (180-200 g; Charles River) were used in all bile duct ligation (BDL) and sham studies. […] For the BDL animals, the abdomen was shaved and swabbed with betadine solution followed by 5 mg/kg carprofen subcutaneously (s.c.) and 5 mg/kg bupronorphine s.c. and under Isoflurane anaesthesia a mid-line laparotomy was performed and the common bile duct located. Bile duct was double ligated, the first ligation made between the junction of the hepatic ducts and the second above the entrance of the pancreatic ducts. […] Animals were closely monitored for the duration of the experiment. […] At the appropriate time point post-injection of the test item, each animal was re-anaesthetised with isoflurane, sacrificed by cervical dislocation weighed and the weight recorded via a barcode scanning system. Each animal was dissected and the following organs and tissues were removed and counted using BASIL counter protocol 40 or manual counting: The BDL and sham animal models were set up as described in Example 3. Uptake of Compound 8 was calculated as Standard Uptake Value (SUV) as follows: [formula] • Zs=counts per second in sample • Ws=weight of sample in grams • Z1=total counts per second measured in all the samples (excluding the injection site) • W1=weight of animal in grams […]

With `C/C(=N\O)C(C)(C)NCCC(CCNC(=O)CCCC(=O)NCCCC[C@@H]1NC(=O)CSC[C@@H](C(=O)NCCOCCOCCOCCNC(=O)COCC(N)=O)NC(=O)[C@H](Cc2ccccc2)NC(=O)[C@@H]2CSSC[C@H](NC1=O)C(=O)N[C@@H](CCCNC(=N)N)C(=O)NCC(=O)N[C@@H](CC(=O)O)C(=O)N2)CCNC(C)(C)/C(C)=N/O` (some centres unmarked) [Compound 8] ({CH2CO}-K([Glutaryl-X1])CRGDCFC-X2; disulfide 2-6; thioether N-8) the Ki [1] was 56 nM and the “Liver uptake in BDL rats (in words)” value [2] was “specific uptake”.
